SMILES strings stand for the structures. Numbers after ± are expanded uncertainties.

The conditions of data set [1]: Crystal; DTA.
Data set [2] in a line: Molar enthalpy of transition or fusion. The settings on record: Crystal 2; DSC.

As for `CCCCCCCCCCCCCCCCCCO` [1-octadecanol], the Normal melting temperature in data set [1] is 58.10 ± 4 °C. For the same compound, the “Molar enthalpy of transition or fusion” value in data set [2] amounted to 16 ± 0.335 kcal/mol.

Values taken from the NIST ThermoML archive (doi:10.1016/j.tca.2018.03.014).
